Results as given in patent US9393181B2, “Dental materials with improved hydrolysis stability based on phthalic acid monomers” (Ivoclar Vivadent AG, priority 2011, dated 2016).

Columns and labels:
Solubility in solvents = format: physicochemical; conditions: e.g. in ethanol or acetone
Experimental: Furthermore compositions which contain water as solvent (f) are preferred. The solubility of the phthalic acid derivatives of the Formula (I) in polar solvents is good.
4-hydroxyphthalic anhydride (6.70 g; 40.8 mmol), BHT (10 mg) and N-(11-bromoundecyl)-N-methyl acrylamide (13.00 g; 40.8 mmol) were dissolved in N,N-dimethylformamide (100 ml). Potassium carbonate (5.64 g; 40.8 mmol) was added. The yellow suspension was stirred at RT. Water (200 ml) was added to the reaction mixture after 20 d and the whole stirred for 1 h at RT. An oily white solid precipitated from the initially cloudy solution. The solvent was decanted off. The residue was dissolved in dilute aqueous Na2CO3 solution (5%; 100 ml). The milky/cloudy aqueous phase was washed with MtBE (5×100 ml). Diluted hydrochloric acid (2N, 100 ml) was added to the water phase (pH=1) and extraction with MtBE (8×100 ml) took place. The combined extracts were dried over Na2SO4, filtered and concentrated on the rotary evaporator. Chloroform (150 ml) was added to the residue and the whole stirred at RT. After 20 h the suspension was filtered. The filtration residue was washed with chloroform (50 ml) and discarded. The filtrate was concentrated on the rotary evaporator. The residue was dissolved in chloroform (50 ml). Acetonitrile (50 ml) was added. After 72 h storage at −18° C. the solvent was decanted off and the residue dried under a fine vacuum.

[1] = Hydrolysis stability of AAUPA in acidic solution, followed by 1H-NMR; format: physicochemical; conditions: 5% AAUPA, 200 ppm BHT, 5% phosphoric acid d3, 10% D2O, 80% DMSO-d6; stored at 37° C., standing time 12 weeks
Experimental: A solution of 5% of the phthalic acid acrylamide AAUPA stabilized with 200 ppm 2,6-di-t-butyl-4-methylphenol, 5% phosphoric acid d3, 10% D2O and 80% DMSO-d6 was prepared, was stored at 37° C. and examined spectroscopically with ^1H-NMR. After a standing time of 12 weeks, no changes were able to be established in the ^1H-NMR spectrum.

[2] = in aqueous solutions; cited from earlier work

Structure (SMILES) | solubility (Solubility in solvents) | changes in the 1H-NMR spectrum (hydrolysis stability) [1] | hydrolysis to 4-MET [2]
C=CC(=O)N(C)CCCCCCCCCCCOc1ccc(C(=O)O)c(C(=O)O)c1 [AAUPA, 4-[11-(acryloyl-methyl-amino)-undecyloxy]phthalic acid] | dissolves very well | no changes | –
C=C(C)C(=O)OCCOC(=O)c1ccc2c(c1)C(=O)OC2=O [Example 4-META] | – | – | very quickly hydrolyzed
